The values below come from patent publication US20230286906A1, “CANNABINOID DERIVATIVES” (CANOPY GROWTH CORPORATION, priority 2019, published 2023).

The target of one test is T1, human CB1 receptor (Homo sapiens, UniProt P21554).
T1 construct: host or cells: CHO-K1 (Chinese hamster ovary) cells, stably transfected; membranes prepared in house
Description: CB1 radioligand ([3H]CP 55,940) competitive binding assay.

The target of the next test is T2, human CB2 receptor (Homo sapiens, UniProt P34972).
T2 construct: host or cells: CHO-K1 (Chinese hamster ovary) cells, stably transfected; membranes prepared in house
T2 sequence (P34972 whole entry): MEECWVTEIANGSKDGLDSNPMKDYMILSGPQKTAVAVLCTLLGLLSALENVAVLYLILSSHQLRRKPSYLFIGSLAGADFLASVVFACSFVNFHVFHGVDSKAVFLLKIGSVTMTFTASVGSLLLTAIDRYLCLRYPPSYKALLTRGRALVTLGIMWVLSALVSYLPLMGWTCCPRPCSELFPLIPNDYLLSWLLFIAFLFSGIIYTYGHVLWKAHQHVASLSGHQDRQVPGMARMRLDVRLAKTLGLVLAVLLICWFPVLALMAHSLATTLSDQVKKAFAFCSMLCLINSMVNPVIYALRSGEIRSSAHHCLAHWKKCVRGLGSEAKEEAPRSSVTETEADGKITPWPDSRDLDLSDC
Description: CB2 radioligand ([3H]CP 55,940) competitive binding assay. The following applies: for Selectivity CB2: fold difference in selectivity between CB1 and CB2 binding, shown in the column of the receptor with higher affinity. The protocol:
Compounds of the present disclosure were tested for CB1 receptor binding affinity and for CB2 receptor binding affinity. As used herein, “binding affinity” is represented by the IC50 value, which was experimentally determined as described herein. The lower the IC50 value the higher the binding affinity. A compound of the present disclosure may be said to have “binding selectivity” if it has a higher binding affinity for one receptor compared to the other.
The membranes were prepared from CHO-K1 (Chinese hamster ovary) cells stably transfected with the human CB2 receptor (Cat. #ES-111-C; Perkin Elmer, Boston, Mass.). The cells were grown adherently and maintained in Ham's F12 medium containing 10% fetal bovine serum (FBS), penicillin, streptomycin and geneticin (G418) at 37° C. in a humid atmosphere of 5% CO2 following the manufacturer's instructions.
For membrane preparation the cells were washed with PBS and scraped off the plates in cold homogenization buffer (25 mM HEPES (pH 7.4), 2 mM EDTA) containing protease inhibitor cocktail (Sigma Cat. #P8340). The cell suspension was homogenized with a Pro-PK-01200D Polytron Homogenizer (Pro Scientific) and then centrifuged for 30 min at 120,000×g. The supernatant was discarded and the pellet was re-suspended in the homogenization buffer and stored at −80° C. until the time of use.
In this experiment, 3H radiolabeled CP 55,940, i.e. [3H]CP 55,940 (Perkin Elmer, Boston, Mass.), was used as a radioligand for the CB2 receptor to determine the binding affinity of compounds for the CB2 receptor (Scheme 4; above).
The competition binding experiments (single dose and dose-response) were performed by incubating 0.6 nM of [3H]CP55,940 (specific activity 101 Ci/mmol, Perkin Elmer) and different concentrations of compounds disclosed herein with membranes prepared as above from CHO-K1 cells expressing human CB2 receptor (1 μg of protein/well), 50 mM Tris-HCl (pH 7.4), 5 mM MgCl2, 1 mM CaCl2, and 2 mg/mL BSA.
For the single dose experiments, the compound stocks (usually 10 mM in DMSO) were diluted to working stocks in the binding buffer to give the final compound concentrations of 10 μM and 1 μM. For the dose-response experiments the test compounds were sequentially diluted to provide the desired concentration range for the IC50 determination. In each case the compounds were pre-incubated with the membrane for 20 min, before adding the radioligand.
After incubation with the radioligand for 60 min at 37° C., the incubation was terminated by rapid filtration of assay mixture through MultiScreen®HTS^+ 96-well filter plates (Millipore, Cat. #MSFCNXB), pre-soaked for 60 min with 50 mM Tris-HCl (pH 7.4) containing 0.33% polyethylenimine (PEI). The nonspecific binding (NSB) was determined in the presence of 10 μM unlabelled CP55,940. After drying the filter plate at 50° C. for at least 60 min, the filter-bound radioactivity was determined by scintillation spectrometry using the 1450 MicroBeta Plate Counter (Perkin Elmer, Boston, Mass.). From the dose-response experiments, the IC50 values were determined (see Table 1, CB2 IC50).

Where [1] appears, read: displacement of 0.8 nM [3H]CP 55,940, CHO-K1 membranes expressing human CB1, read-out: CB1 IC50.
The mark [2] stands for this setting: displacement of 0.6 nM [3H]CP55,940, CHO-K1 membranes expressing human CB2, read-out: CB2 IC50.

SMILES strings stand for the structures. Like-named read-outs stand apart in the source and are kept apart here.

T1 sequence (P21554 whole entry): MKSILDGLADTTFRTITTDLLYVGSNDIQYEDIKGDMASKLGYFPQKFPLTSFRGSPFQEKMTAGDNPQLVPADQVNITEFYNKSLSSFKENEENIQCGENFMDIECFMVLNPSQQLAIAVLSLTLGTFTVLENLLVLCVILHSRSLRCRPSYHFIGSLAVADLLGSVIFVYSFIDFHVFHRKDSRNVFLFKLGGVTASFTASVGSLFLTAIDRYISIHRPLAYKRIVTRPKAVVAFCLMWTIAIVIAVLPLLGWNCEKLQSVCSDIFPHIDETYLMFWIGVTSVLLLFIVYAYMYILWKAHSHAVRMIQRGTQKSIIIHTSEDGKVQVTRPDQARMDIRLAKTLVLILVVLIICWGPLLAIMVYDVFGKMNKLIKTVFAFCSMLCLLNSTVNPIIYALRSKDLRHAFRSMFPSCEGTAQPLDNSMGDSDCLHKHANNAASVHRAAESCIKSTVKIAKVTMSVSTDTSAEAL

For `CCCCCc1cc(O)c(C/C=C(\C)CCC=C(C)C)c(O)c1C(=O)NC` [Compound 1, 3-(3,7-dimethylocta-2,6-dien-1-yl)-2,4-dihydroxy-N-methyl-6-pentylbenzamide], the IC50 at human CB1 receptor (setting [1]) is above 5000 nM; at human CB2 receptor (setting [2]), 1000 to 4990 nM. On human CB2 receptor, the “Selectivity CB2” value was determined as 4.06.

`CCCCCc1cc(O)c(C/C=C(\C)CCC=C(C)C)c(O)c1C(=O)NC1CC1` [Compound 6, N-cyclopropyl-3-(3,7-dimethylocta-2,6-dien-1-yl)-2,4-dihydroxy-6-pentylbenzamide]: the IC50 at human CB1 receptor (setting [1]) and at human CB2 receptor (setting [2]) was 1000 to 4990 nM throughout. Moreover, the “Selectivity CB2” value at human CB2 receptor is on record as 3.41.

On to `CCCCCc1cc(O)c(C/C=C(\C)CCC=C(C)C)c(O)c1C(=O)Nc1ccccc1` [Compound 10, 3-(3,7-dimethylocta-2,6-dien-1-yl)-2,4-dihydroxy-6-pentyl-N-phenylbenzamide], for which the IC50 is above 5000 nM on human CB1 receptor (setting [1]) and 1000 to 4990 nM on human CB2 receptor (setting [2]). Moreover, the “Selectivity CB2” value on human CB2 receptor stood at 4.86.

Take `CCCCCc1cc(O)c(C/C=C(\C)CCC=C(C)C)c(O)c1C(=O)Nc1ccc(OC)cc1` [Compound 11, 3-(3,7-dimethylocta-2,6-dien-1-yl)-2,4-dihydroxy-N-(4-methoxyphenyl)-6-pentylbenzamide]: the IC50 was in the range of 1000 to 4990 nM on human CB1 receptor (setting [1]) and 500 to 990 nM at human CB2 receptor (setting [2]). Also, the “Selectivity CB2” value at human CB2 receptor is 2.35.

On to `CCCCCc1cc(O)c(C/C=C(\C)CCC=C(C)C)c(O)c1C(=O)NCc1ccccc1` [Compound 14, N-benzyl-3-(3,7-dimethylocta-2,6-dien-1-yl)-2,4-dihydroxy-6-pentylbenzamide], for which the IC50 is above 5000 nM on human CB1 receptor (setting [1]) and 1000 to 4990 nM on human CB2 receptor (setting [2]). For the same compound, the “Selectivity CB2” value at human CB2 receptor amounted to 8.57.

As to `CCCCCc1cc(O)c(C/C=C(\C)CCC=C(C)C)c(O)c1C(=O)N1CCOCC1` [Compound 39], the IC50 at human CB1 receptor (setting [1]) is above 5000 nM; on human CB2 receptor (setting [2]), below 500 nM. The “Selectivity CB2” value on human CB2 receptor was 24.32.

For the compound `CCCCCc1cc(O)c(C/C=C(\C)CCC=C(C)C)c(O)c1C(=O)N1CCCC1` [Compound 41, (3-(3,7-dimethylocta-2,6-dien-1-yl)-2,4-dihydroxy-6-pentylphenyl)(pyrrolidin-1-yl)methanone], the IC50 at human CB1 receptor (setting [1]) is above 5000 nM; on human CB2 receptor (setting [2]), 1000 to 4990 nM. The “Selectivity CB2” value on human CB2 receptor was found to be 11.54.

`CCCCCc1cc(O)c(C/C=C(\C)CCC=C(C)C)c(O)c1C(=O)N(CC)CC` [Compound 50, 3-(3,7-dimethylocta-2,6-dien-1-yl)-N,N-diethyl-2,4-dihydroxy-6-pentylbenzamide] showed an IC50 on human CB1 receptor above 5000 nM. For the same compound, on human CB2 receptor, the IC50 fell in the range of 1000 to 4990 nM and the “Selectivity CB2” value is given as 4.80.

`CCCCCc1cc(O)c(CC=C(C)CCC=C(C)C)c(O)c1CN(C)C(=O)OC` [Compound 58, methyl (3-(3,7-dimethylocta-2,6-dien-1-yl)-2,4-dihydroxy-6-pentylbenzyl)(methyl)carbamate]: the IC50 at human CB1 receptor (setting [1]) is 1000 to 4990 nM; at human CB2 receptor (setting [2]), below 500 nM. Moreover, the “Selectivity CB2” value on human CB2 receptor was determined as 30.00.

On to `CCCCCc1c(CN(C)C(=O)OC)c(O)c(CC=C(C)CCC=C(C)C)c(O)c1CN(C)C(=O)OC` [Compound 59, dimethyl ((5-(3,7-dimethylocta-2,6-dien-1-yl)-4,6-dihydroxy-2-pentyl-1,3-phenylene)bis(methylene))bis(methylcarbamate)], for which the IC50 at human CB1 receptor (setting [1]) and at human CB2 receptor (setting [2]) was 500 to 990 nM throughout. The “Selectivity CB2” value on human CB2 receptor amounted to 1.49.

For the compound `CCCCCc1cc(O)c(C/C=C(\C)CCC=C(C)C)c(O)c1C(=O)Nc1ccc(F)cc1` [Compound 60, 3-(3,7-dimethylocta-2,6-dien-1-yl)-N-(4-fluorophenyl)-2,4-dihydroxy-6-pentyl benzamide], the IC50 at human CB1 receptor (setting [1]) was 1000 to 4990 nM; at human CB2 receptor (setting [2]) it was below 500 nM. Moreover, the “Selectivity CB2” value on human CB2 receptor came to 2.52.

Take `CCCCCc1cc(O)c(C/C=C(\C)CCC=C(C)C)c(O)c1C(=O)NCc1ccc(F)cc1` [Compound 61, 3-(3,7-dimethylocta-2,6-dien-1-yl)-N-(4-fluorobenzyl)-2,4-dihydroxy-6-pentylbenzamide]: the 50% inhibitory concentration (IC50) on human CB1 receptor (setting [1]) is 500 to 990 nM; on human CB2 receptor (setting [2]), below 500 nM. The “Selectivity CB2” value on human CB2 receptor is given as 118.29.

Consider `CCCCCc1cc(O)c(C/C=C(\C)CCC=C(C)C)c(O)c1C(=O)NCc1cccnc1` [Compound 62, 3-(3,7-dimethylocta-2,6-dien-1-yl)-2,4-dihydroxy-6-pentyl-N-(pyridin-3-ylmethyl)benzamide], for which the values for the IC50 on human CB1 receptor (setting [1]) and on human CB2 receptor (setting [2]) were 1000 to 4990 nM and 500 to 990 nM, respectively. Besides, the “Selectivity CB2” value on human CB2 receptor was determined as 4.71.

On to `CCCCCc1cc(O)c(C/C=C(\C)CCC=C(C)C)c(O)c1C(=O)Nc1cccnc1` [Compound 63, 3-(3,7-dimethylocta-2,6-dien-1-yl)-2,4-dihydroxy-6-pentyl-N-(pyridin-3-yl) benzamide], for which the IC50 on human CB1 receptor fell in the range of 1000 to 4990 nM. Moreover, at human CB2 receptor, the IC50 lay within 1000 to 4990 nM and the “Selectivity CB2” value was found to be 2.20.

The term IC50 denotes the concentration that gives 50% inhibition.
